Assay results reported in US20030144308A1, “Fructose 1,6-bisphosphatase inhibitors” (priority 2001, published 2003).
One block for each compound: values may come before it.

Columns and labels:
[1] = target: recombinant human F16BPase (Homo sapiens, UniProt P09467); conditions: read-out: IC50 against the human enzyme; allosteric inhibitor; 40 minutes at room temperature without preincubation of compound with enzyme
Experimental: Fructose-1,6-bisphosphatase Enzyme Assay: Fructose-1,6-bisphosphatase (F16BP) is assayed by measuring its ability to hydrolyze inorganic phosphate from fructose-1,6-bisphosphate using a modification of a reported method (Biochem. J. 1994, 298, 395). […] The final solution consists of 50 mM HEPES (catalog #H7523, Sigma Chemical Company, PO Box 14508, St. Louis, Mo. 63178) pH=7.2, 100 mM KCl (Sigma catalog #P3911), 2 mM MgCI2 (Sigma catalog #M9272), 2 mM EGTA (Sigma catalog #E0396), 1 mM DTT (Sigma atalog #D5545), and 500 1 μM fructose-1,6-bisphosphate (Sigma catalog #752-1). The solution is incubated for 40 minutes at room temperature without preincubation of compound with enzyme. The phosphate released by the enzyme is measured spectrophotometrically using a Titertek Multiscann MCC 340 (Titertek, 330 Wynn Drive, Huntsville, Ala. 35805) at 620 nm, after allowing the phosphate to form a complex for 10 minutes after the addition of 150 μL of ammonium molybdate/malachite green (AM/MG) solution. To prepare the AM/MG solution, one volume of 4.2% ammonium molybdate (w/v, Sigma catalog #A7302) in 4 molar aqueous hydrochloric acid is added to three volumes of 0.045% malachite green (w/v, Sigma catalog #M9636) and 0.01% Tween®-20 (v/v, Sigma catalog #P1379) in water. […]

[2] = test system: another carcinoma which does not express the EGF receptor; conditions: mouse, in vivo; cited from earlier work
[3] = test system: transplanted human mammary carcinoma which expresses epidermal growth factor receptor tyrosine kinase (EGFR); conditions: athymic nude mice; cited from earlier work

recombinant human F16BPase, sequence (P09467 whole entry): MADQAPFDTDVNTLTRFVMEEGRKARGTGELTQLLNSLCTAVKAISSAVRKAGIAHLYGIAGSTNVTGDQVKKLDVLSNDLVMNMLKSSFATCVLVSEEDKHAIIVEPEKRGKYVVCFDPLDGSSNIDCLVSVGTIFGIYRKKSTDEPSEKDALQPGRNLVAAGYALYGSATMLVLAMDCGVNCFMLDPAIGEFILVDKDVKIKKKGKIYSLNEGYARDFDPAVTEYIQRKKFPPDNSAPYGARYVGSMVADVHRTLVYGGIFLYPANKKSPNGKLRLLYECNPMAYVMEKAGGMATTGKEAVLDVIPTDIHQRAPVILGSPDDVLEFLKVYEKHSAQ

melting point: 252 to 256 °C
SMILES: CCOc1cc2nc(CCl)nc(Nc3cccc(-c4csc(C)n4)c3)c2cc1OCC.Cl

IC50 [1]: 800 nM
SMILES: Nc1ncnc2c1ncn2[C@@H]1O[C@H](COP(=O)(O)O)[C@@H](O)[C@H]1O [AMP, adenosine 5′-monophosphate]

SMILES: O=CN/C=C/c1cc(O)ccc1O [erbstatin]
growth of carcinoma which does not express the EGF receptor [2]: without effect on the growth
growth of transplanted human mammary carcinoma expressing EGFR [3]: selectively attenuates the growth
